Laboratory results: ChEMBL document CHEMBL1135201, “Combinatorial library of indinavir analogues: replacement for the aminoindanol at P2'” (Bioorg Med Chem Lett, 2002)

How the values were obtained:
[1] = biological target: Human immunodeficiency virus type 1 protease (Human immunodeficiency virus 1, UniProt Q72874); assay: Ability to prevent cleavage of acompound by the HIV protease wild-type enzyme
MT4 = assay: Ability to inhibit the spread of viral infection in MT-4 human T-lymphoid cells infected with HIV IIIb; format: functional

Cc1cc(O)cc(C)c1CNC(=O)[C@H](Cc1ccccc1)C[C@@H](O)CN1CCN(S(=O)(=O)c2ccc3c(c2)CCN3c2ncccn2)C[C@@H]1C(=O)NC(C)(C)C
IC50 [1]: 200 pM | ClC95 (MT4): 31.3 nM

CC(C)(C)NC(=O)[C@H]1CN(S(=O)(=O)c2cccs2)CCN1C[C@H](O)C[C@@H](Cc1ccccc1)C(=O)NC1c2ccccc2C[C@H]1O (stereo partly drawn)
IC50 [1]: 100 pM | ClC95 (MT4): 31.3 nM

CSc1nccc(-c2ccc(S(=O)(=O)N3CCN(C[C@H](O)C[C@@H](Cc4ccccc4)C(=O)NCc4c(C)cc(O)cc4C)[C@@H](C(=O)NC(C)(C)C)C3)s2)n1
IC50 [1]: < 200 pM | ClC95 (MT4): 62.5 nM

Cc1cc(O)cc(C)c1CNC(=O)[C@H](Cc1ccccc1)C[C@@H](O)CN1CCN(S(=O)(=O)c2cccs2)C[C@@H]1C(=O)NC(C)(C)C
IC50 [1]: 470 pM | ClC95 (MT4): 62.5 nM
